Data reported in PMC4870679, “A novel pathway for fungal D-glucuronate catabolism contains an L-idonate forming 2-keto-L-gulonate reductase” (Scientific Reports, 2016).

What was measured:
[1] = tested on: GluC (2-keto-L-gulonate reductase); test: NADH consumption at […] nm, Konelab analyser; assay type: biochemical, Aspergillus niger; details: 400 uM NADH, 50 mM Tris pH 7
[2] = tested on: GluC (2-keto-L-gulonate reductase); test: NADH formation at […] nm, Konelab analyser; assay type: biochemical, Aspergillus niger; details: 400 uM NAD+, 50 mM Tris pH 8; reverse direction

Compound | Km [1] | Km [2]
O=C(O)C(=O)[C@@H](O)[C@H](O)[C@@H](O)CO [2-keto-L-gulonate] | 30 mM | –
O=C(O)[C@H](O)[C@@H](O)[C@H](O)[C@@H](O)CO [L-idonate] | – | 20 mM
